Experimental data taken from US20100022542A1, “COMPOUNDS EXHIBITING THROMBOPOIETIN RECEPTOR AGONISM” (Shionogi & Co., Ltd., priority 2000, published 2010).

These compounds were tested against T1, human TPO receptor (hTPOR) (Homo sapiens, UniProt P40238) (assay: Proliferation of TPO dependent BaF/hTPOR cells, WST-1, thrombopoietic activity ED50 (Test Example 3)). Conditions: 20 h incubation then WST-1 4 h, absorbance at 450 nm.
T1 construct: expressed in transfected cells; host or cells: BaF-B03 (murine IL-3 dependent cell line)
T1 sequence (P40238 26-635): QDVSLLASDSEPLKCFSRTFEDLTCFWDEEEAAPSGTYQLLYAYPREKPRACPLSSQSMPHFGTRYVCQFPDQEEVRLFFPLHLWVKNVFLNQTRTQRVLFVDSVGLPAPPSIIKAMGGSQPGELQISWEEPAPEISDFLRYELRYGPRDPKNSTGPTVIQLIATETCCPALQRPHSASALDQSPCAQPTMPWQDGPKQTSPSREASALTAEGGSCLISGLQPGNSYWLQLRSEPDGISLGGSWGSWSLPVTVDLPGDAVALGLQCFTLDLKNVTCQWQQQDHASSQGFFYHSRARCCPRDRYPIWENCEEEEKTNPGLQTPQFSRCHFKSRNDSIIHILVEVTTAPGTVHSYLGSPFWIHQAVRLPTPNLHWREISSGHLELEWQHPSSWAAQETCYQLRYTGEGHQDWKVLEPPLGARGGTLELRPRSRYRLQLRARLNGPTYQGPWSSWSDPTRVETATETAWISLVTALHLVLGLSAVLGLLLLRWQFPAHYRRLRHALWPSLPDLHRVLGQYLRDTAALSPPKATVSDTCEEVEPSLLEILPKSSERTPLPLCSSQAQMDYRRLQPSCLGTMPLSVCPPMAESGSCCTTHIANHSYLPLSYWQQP
Type: cell-based
Description: FIG. 2: The chart represents proliferation of the human TPO dependent cells bearing human TPO receptors by the present invention compound, wherein the x-axis is concentration of the present invention compound, and the y-axis is the absorbance as an indicator of cell proliferation. Open circles indicate a response of human TPO, and closed circles indicate a response of the compound (B-1).
The TPO dependent BaF/hTPOR cell line which was established by introducing human TPO receptor (hTPOR) into BaF-B03 cells according to Collins et al (J. Cell. Physiol., 137:293-298 (1988)) was used to test the thrombopoietic activity of the present compound. The DNA sequences and encoded peptide sequences for human hTPOR have been described by Vigon et al (Proc. Natl. Acad. Sci. USA, 89:5640-5644 (1992)). TPO dose not have any ability to support proliferation of interleukin-3 dependent parental cell line BaF-B03. BAF/hTPOR cells were maintained in RPMI medium and WEHI-3B conditioned medium as a source of murine interleukin-3 (IL-3). These cells were washed and resuspended in RPMI medium without a source of murine IL-3 and seeded into each well of 96-well microtiter plates at a density of 5×10^4 cells per well in the absence or presence of various concentration of hTPO or the present compound. After incubation at 37° C. for 20 hours in the 5% CO2 incubator, 10% WST-1 reagent (Takara Biomedicals, Japan) was added to each wells and the cells were further incubated for 4 hours. Effect of the present compound on the growth of BAF/mTPOR cell line which was established by introducing murine TPO receptor (mTPOR) into BAF-B03 cells is shown in FIG. 3. Table 8 exemplifies the ED50 for tested compounds of the present invention, wherein the ED50 is the half concentration of the concentration showing the maximum thrombopoietic activity.

| SMILES | EC50 |
| --- | --- |
| CSCCCNC(=O)/C(C)=C/c1ccc(C(=O)Nc2nc(-c3ccc(Cl)c(Cl)c3)cs2)cc1 [Compound B-32] | 123 nM |
| CCOC(=O)/C(C)=C/c1ccc(C(=O)Nc2nc(-c3cccc(OC(F)(F)F)c3)cs2)cc1 [Compound A-19] | 170 nM |
| CCOC(=O)/C(Cl)=C/c1ccc(C(=O)Nc2nc(-c3ccc(F)cc3)cs2)cc1 [Compound A-37] | 96 nM |
| CNC(=O)C(C)=Cc1ccc(C(=O)Nc2nc(-c3ccc(Cl)c(Cl)c3)cs2)cc1 [Compound B-4] | 89 nM |
| O=C(O)C#Cc1ccc(C(=O)Nc2nc(-c3ccc(Cl)c(Cl)c3)cs2)cc1 [Compound L-2] | 143 nM |
| CNC(=O)/C=C/c1ccc(C(=O)Nc2nc(-c3ccc(Cl)c(Cl)c3)cs2)cc1 [Compound B-3] | 156 nM |
| O=C(O)/C(Cl)=C/c1ccc(C(=O)Nc2nc(-c3ccc4c(c3)CCC4)cs2)cc1 [Compound A-73] | 75 nM |
| C/C(=C\c1ccc(C(=O)Nc2nc(-c3ccc(Cl)c(Cl)c3)cs2)cc1)C(=O)Nc1nccs1 [Compound B-11] | 236 nM |
| CCOC(=O)/C(C)=C/c1ccc(C(=O)Nc2nc(-c3ccc(F)cc3)cs2)cc1 [Compound A-23] | 337 nM |
| C/C(=C\c1ccc(C(=O)Nc2nc(-c3ccc(Cl)c(Cl)c3)cs2)cc1)C(=O)NCC(F)(F)F [Compound B-31] | 178 nM |

More lines, now with the values ahead:

| EC50 | SMILES |
| --- | --- |
| 72 nM | O=C(O)/C(Cl)=C/c1ccc(C(=O)Nc2nc(-c3ccc(F)c(-c4ccccc4)c3F)cs2)cc1 [Compound A-89] |
| 8 nM | CCCCCCc1cccc(-c2csc(NC(=O)c3ccc(/C=C(\Cl)C(=O)O)cc3)n2)c1F [Compound A-93] |
| 107 nM | Cc1sc(NC(=O)c2ccc(/C=C(\Cl)C(=O)O)cc2)nc1-c1cccc(C(F)(F)F)c1F [Compound J-12] |
| 28 nM | O=C(O)/C(Cl)=C/c1ccc(C(=O)Nc2nc(-c3cccc(-c4ccc(F)cc4)c3F)cs2)cc1 [Compound A-88] |
| 47 nM | O=C(O)/C(Cl)=C/c1ccc(C(=O)Nc2nc(-c3ccc(C(F)(F)F)cc3)cs2)cc1 [Compound A-40] |
| 19 nM | O=C(O)/C(Cl)=C/c1ccc(C(=O)Nc2nc(-c3cccc(C(F)(F)F)c3F)cs2)cc1 [Compound A-57] |
| 710 nM | Cc1ccc(C)c(-c2csc(NC(=O)c3ccc(/C=C(\Cl)C(=O)O)cc3)n2)c1 [Compound A-87] |
| 243 nM | O=C(O)/C(Cl)=C/c1ccc(C(=O)Nc2nc(-c3ccc(F)c(Br)c3F)cs2)cc1 [Compound A-86] |
| 25 nM | O=C(O)/C(Cl)=C/c1ccc(C(=O)Nc2nc(-c3ccc(F)c(Br)c3)cs2)cc1 [Compound A-63] |
